Like-named read-outs stand apart in the source and are kept apart here.
Assays:
[1] = system: pAKT serine 473 level in PC3 cells; experiment: pAKT status in IGF-1 stimulated PC3 cells (Ser473 pAKT ELISA); assay type: cell-based; conditions: Homo sapiens, PC-3
Procedure: (§1) PC3 cells were obtained from the American Type Culture Collection (ATCC, Manassas, Va., Cat.# CRL-1435). Two million cells from the prostate cancer line PC3 were placed into 6 cm culture dishes and allowed to grow in complete RPMI 1640 media (Invitrogen, Carlsbad, Calif., Cat.#22400-105) with 10% fetal bovine serum (Invitrogen, Carlsbad, Calif., Cat.#10438-026). After this time period the cells were serum starved for 5 hours followed by application of the test compound. Test compound was added as a DMSO (dimethyl sulfoxide) solution such that the final DMSO concentration in the cell media was less than or equal to 0.2% by volume After 30 minutes of exposure the growth factor stimulant, human IGF-1 (PeproTech, Inc., Rocky Hill, N.J., Cat.#100-11), was added to a final concentration of 0.1 μg/ml in each well. After 30 minutes of IGF-1 exposure, cells were removed from the media and cell lysates were prepared using RIPA Lysis buffer (Upstate, Lake Placid, N.Y., Cat.#20-188), keeping on ice. The pAKT serine 473 level was measured in duplicate samples of the cell lysates using commercially available assays such as the Pathscan® Sandwich ELISA kit for Ser473 pAKT (Cell Signaling, Danvers, Mass., Cat.#7160). A SpectraMax Plus spectrophotometric plate reader (Molecular Devices, Sunnydale, Calif.) was used to measure the optical density signal for pAKT at 450 nm (OD450 nm). The pAKT OD450 nm readings were normalized by total protein amount in the cell lysates determined by standard methods.
(§2) Concentrations of test compounds required to inhibit IGF stimulated pAKT levels to 50% of maximum levels in PC3 cells (termed DM50 for decreased maximum 50%) were calculated by inputting the dose responses in the software package GraphPad Prism4 (GraphPad Software, Inc., San Diego, Calif.).
By these methods a number of compounds of the invention were evaluated and the concentration needed to reduce the detectable pAKT to 50% of the maximal uninhibited signal was calculated. These values (in μMolar units) are listed in Table 8 under the column heading PC3 pAKT IC50 (μMolar).

[2] = system: PC3 cells; experiment: PC3 prostate cancer cell proliferation (WST); assay type: cell-based; conditions: Homo sapiens, PC-3; 72 hours; read-out: IC50 PC3 Proliferation
Procedure: (§3) PC3 cells were obtained from the American Type Culture Collection (ATCC, Manassas, Va., Cat.# CRL-1435) Two thousand cells from the prostate cancer line PC3 were placed in 50 μL of complete RPMI 1640 media (Invitrogen, Carlsbad, Calif., Cat.#22400-105) with 10% fetal bovine serum (Invitrogen, Carlsbad, Calif., Cat.#10438-026) into each well of 96 well cell culture plates in a hexaplicate sampling pattern. A 50 μL aliquot of test compound (prepared from stock test compounds in DMSO diluted into media) was added to the appropriate well such that the final concentrations of test compound were 200, 40, 8, 1.6, 0.32, 0.064, 0.0128, 0.00256, and 0 μM and the final DMSO concentration was less than or equal to 0.2%.
(§4) The plates were incubated for 72 hours 37° C. in an atmosphere of 5% CO2. At the end of this time a 10 μL aliquot of WST solution (Roche Applied Science, Mannheim, Germany) was added into each of the wells. Cells were exposed to the WST solution for 4 hours. A SpectraMax Plus spectrophotometric plate reader (Molecular Devices, Sunnydale, Calif.) was then used to measure the optical density at 450 nm (OD450 nm). Sigmoidal curves were drawn for the dose responses and IC50 values were calculated using the software package GraphPad Prism4 (GraphPad Software, Inc., San Diego, Calif.).

[3] = system: H1299 cells; experiment: Cellular proliferation (Example B method), H1299; assay type: cell-based; conditions: Homo sapiens, NCI-H1299; H1299, non-small cell lung cancer
Procedure: as §3, §4
(§5) Several other cancer cell lines were obtained from ATCC and grown according to their recommendations and treated with test compounds to obtain the concentration of test compound that inhibited the cellular proliferation by 50% of no-treatment controls. These IC50 values (μM) are listed in Table 7 below obtained by the methods described in Example B: […]

[4] = system: pAKT in 786-O cells; experiment: pAKT status DM50, 786-O; assay type: cell-based; conditions: Homo sapiens, 786-0, renal cell carcinoma
Procedure: as §1, §2
(§6) Several other cancer cell lines were obtained from ATCC and grown according to the supplier's recommendations and treated with test compounds. DM50 values listed in Table 6 below were obtained by the methods described in Example A: […]

[5] = system: BT-474 cells; experiment: Cellular proliferation (Example B method), BT-474; assay type: cell-based; conditions: Homo sapiens; BT-474, breast cancer
Procedure: as §3, §4, §5

[6] = system: 786-0 renal cell carcinoma xenograft; experiment: 786-0 renal cell carcinoma xenograft mouse model; assay type: in vivo, nude mice; conditions: 25 mg/kg, ip, 3×/wk
Procedure: To determine if Cpd 9 has anti-tumor effects, an in vivo study was conducted in a 786-0 renal cell carcinoma xenograft model, 786-0 cells (2×10^6) were inoculated subcutaneously into nude mice in the flank area and tumor growth was monitored with calipers via external measurements. Tumor volume was calculated using the formula volume=(length×width^2)/2. When the average tumor volume reached 400 mm^3, mice were randomly divided into 2 groups and treated with either DMSO (control) or Cpd 9 (25 mg/kg, ip) three times weekly (M, W, F) for two weeks.
To determine if Cpd 28 has anti-tumor effects, an in vivo study was conducted in a 786-0 renal cell carcinoma xenograft model, 786-0 cells (2×10^6) were inoculated subcutaneously into nude mice in the flank area and tumor growth was monitored with calipers via external measurements. Tumor volume was calculated using the formula volume=(length×width^2)/2. Treatment was started when tumors reached an average volume of 300 mm^3. […] DMSO was used as control since this was the vehicle the compounds were dissolved in. Tumor size was monitored twice weekly and body weight was monitored once weekly. Means and standard deviations were calculated and the Student t test method was used for statistical comparisons.

[7] = system: pAKT in BT-474 cells; experiment: pAKT status DM50, BT-474; assay type: cell-based; conditions: Homo sapiens; BT-474, breast cancer
Procedure: as §1, §2, §6

[8] = system: pAKT in H1299 cells; experiment: pAKT status DM50, H1299; assay type: cell-based; conditions: Homo sapiens, NCI-H1299; H1299, non-small cell lung cancer
Procedure: as §1, §2, §6

[9] = system: 786-O cells; experiment: Cellular proliferation (Example B method), 786-O; assay type: cell-based; conditions: Homo sapiens, 786-0, renal cell carcinoma
Procedure: as §3, §4, §5

[10] = system: 786-0 cells; experiment: Apoptosis in 786-0 cells (Annexin V / PI flow cytometry); assay type: cell-based; design: unit not given here; conditions: overnight
Procedure: In order to evaluate the mechanism of action of these compounds, 786-0 cell cultures were treated with Cpd 9 or Cpd 28 at different concentrations overnight and then analyzed for apoptotic induction. The cells were stained using standard methods with Annexin V and/or Propedium iodine (PI) at room temperature for 15 minutes. Apoptotic cells at early (Annexin V positive) or late stage (both Annexin V and PI positive) were detected by Flow Cytometry.

[11] = molecular target: mTOR (Homo sapiens, UniProt P42345); experiment: mTOR inhibition; assay type: biochemical
[12] = IGF-1 stimulated PC3 cells, read-out: PC3 pAKT IC50

Compound	IC50 [1, 12]	IC50 [2]	IC50 [3]	IC50 [4]	IC50 [5]	tumor growth reduction compared to control ([6]; about two weeks, p<0.05)	body weight change or other abnormalities ([6]; two weeks)	IC50 [7]	IC50 [8]	IC50 [9]	Early stage apoptotic cells ([10]; 5 μM)	Late stage apoptotic cells ([10]; 5 μM)	Total Apoptotic Cells ([10]; 5 μM)	Early stage apoptotic cells ([10]; 10 μM)	Late stage apoptotic cells ([10]; 10 μM)	Total Apoptotic Cells ([10]; 10 μM)	IC50 ([1]; PC3 cells, read-out: IC50 pAKT (Pathway Inhibition))	IC50 [11]
COc1ccc(C#Cc2csc3c(=O)cc(N4CCOCC4)oc23)cc1 [Compound 38]	0.363 µM	8.42 µM																
CN(C)c1ccc(-c2csc3c(=O)cc(N4CCOCC4)oc23)cc1 [Compound 9]		2.01 µM	3.04 µM	2.66 µM	5.91 µM	93%	No significant body weight change or other abnormalities were observed	0.906 µM	3.07 µM	6.24 µM	7.76	10.5	18.26	8.31	11.62	19.93		
CS(=O)(=O)c1ccc(-c2csc3c(=O)cc(N4CCOCC4)oc23)cc1 [Compound 13]	5.29 µM	15.3 µM																
O=c1cc(N2CCOCC2)oc2c(-c3ccccc3)csc12 [Compound 6, 5-morpholino-3-phenyl-7H-thieno[3,2-b]pyran-7-one]	0.55 µM		5.02 µM	4.17 µM	11.6 µM			1.25 µM	3.19 µM	9.53 µM							0.55 µM	0.61 µM

— patent US9981983B2, “Thienopyranones as kinase inhibitors” (SignalRx Pharmaceuticals, Inc., priority 2008, dated 2018)
